biological target: T1, Tyrosinase (Agaricus bisporus, UniProt O42713); experiment: Inhibition of mushroom tyrosinase using L-DOPA as substrate after 10 mins
T1 sequence (O42713 whole entry): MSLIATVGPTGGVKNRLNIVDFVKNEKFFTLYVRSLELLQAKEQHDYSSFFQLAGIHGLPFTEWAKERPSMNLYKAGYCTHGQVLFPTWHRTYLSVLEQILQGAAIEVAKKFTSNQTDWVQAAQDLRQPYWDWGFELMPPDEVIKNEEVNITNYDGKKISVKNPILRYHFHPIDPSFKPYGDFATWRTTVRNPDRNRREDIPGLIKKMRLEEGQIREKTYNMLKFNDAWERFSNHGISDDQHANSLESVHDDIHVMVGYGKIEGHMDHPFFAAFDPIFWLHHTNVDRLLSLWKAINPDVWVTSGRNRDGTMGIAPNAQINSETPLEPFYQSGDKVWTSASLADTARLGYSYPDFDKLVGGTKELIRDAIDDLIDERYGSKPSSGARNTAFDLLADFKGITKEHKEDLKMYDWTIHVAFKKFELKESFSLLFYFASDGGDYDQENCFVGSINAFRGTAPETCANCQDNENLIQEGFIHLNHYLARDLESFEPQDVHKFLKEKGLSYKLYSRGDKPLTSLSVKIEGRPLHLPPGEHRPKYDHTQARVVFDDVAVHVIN

Row | IC50 [µM] | SMILES
1 | 49.6 | Oc1ccc(CCc2ccc(F)cc2)c(O)c1
2 | 33.8 | Oc1ccc(CCc2ccccc2Cl)c(O)c1
3 | 30.6 | Oc1ccc(CCc2ccccc2)c(O)c1
4 | 8.44 | Oc1ccc(CCc2ccc(O)cc2O)cc1
5 | 31.6 | COc1ccc(CCc2ccc(O)cc2O)cc1
